This assay has as its system BDF1 mice, B16 melanoma ip, median survival T/C. Put plainly: NCI In Vivo Anticancer Drug Screen. Data for tumor model B16 Melanoma (intraperitoneal) in B6D2F1 (BDF1) mice. As to conditions: endpoint: median survival time, higher = longer survival. The essentials: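 Compounds were tested in mice carrying transplantable tumors. Survival or tumor size was recorded, and each value is the treated-group measurement (T) divided by that of the vehicle-treated control group (C).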

Where [1] appears, read: dose: 3.13 mg/kg/injection, schedule: Q01DX009 (ip), vehicle: saline with Tween-80.
Where [2] appears, read: dose: 6.25 mg/kg/injection, schedule: Q01DX009 (ip), vehicle: saline with Tween-80.
Setting [3] is: dose: 12.5 mg/kg/injection, schedule: Q01DX009 (ip), vehicle: saline with Tween-80.
The mark [4] stands for this setting: dose: 25.0 mg/kg/injection, schedule: Q01DX009 (ip), vehicle: saline with Tween-80.
Where [5] appears, read: dose: 50.0 mg/kg/injection, schedule: Q01DX009 (ip), vehicle: saline with Tween-80.
[6] abbreviates: dose: 100.0 mg/kg/injection, schedule: Q01DX009 (ip), vehicle: saline.
Setting [7] is: dose: 12.5 mg/kg/injection, schedule: Q01DX009 (ip), vehicle: Klucel (hydroxypropylcellulose) (HPC).
[8] abbreviates: dose: 25.0 mg/kg/injection, schedule: Q01DX009 (ip), vehicle: Klucel (hydroxypropylcellulose) (HPC).
[9] abbreviates: dose: 50.0 mg/kg/injection, schedule: Q01DX009 (ip), vehicle: Klucel (hydroxypropylcellulose) (HPC).
The mark [10] stands for this setting: dose: 100.0 mg/kg/injection, schedule: Q01DX009 (ip), vehicle: Klucel (hydroxypropylcellulose) (HPC).

Several values for one entry are separate records, joined by “and”; a condition that tells them apart may be missing. Equal values may be shown once. Inconclusive results and toxic doses are left out.

For `COc1cccc2c1C(=O)c1c(O)c3c(c(O)c1C2=O)CC(O)(C(=O)CO)CC3OC1CC(N)C(O)C(C)O1` (configuration not stated), the T/C (dose: 1.12 mg/kg/injection, schedule: Q01DX001 (ip), vehicle: water) was 178 % of control; the T/C (dose: 2.25 mg/kg/injection, schedule: Q01DX001 (ip), vehicle: water) was 156 % of control and 212 % of control and 228 % of control; the T/C (dose: 2.9 mg/kg/injection, schedule: Q01DX009 (ip), vehicle: saline) was 195 % of control; the T/C (dose: 4.2 mg/kg/injection, schedule: Q01DX001 (ip), vehicle: water) is 178 % of control; the T/C (dose: 4.32 mg/kg/injection, schedule: Q01DX004 (ip), vehicle: other) is 152 % of control; the T/C (dose: 4.5 mg/kg/injection, schedule: Q01DX001 (ip), vehicle: water) was 161 % of control and 194 % of control and 273 % of control. The T/C is 183 % of control (dose: 6.9 mg/kg/injection, schedule: Q01DX001 (ip), vehicle: water); 152 % of control (dose: 7.2 mg/kg/injection, schedule: Q01DX004 (ip), vehicle: other); 203 % of control and 273 % of control and 277 % of control (dose: 9.0 mg/kg/injection, schedule: Q01DX001 (ip), vehicle: water); 189 % of control (dose: 9.4 mg/kg/injection, schedule: Q01DX001 (ip), vehicle: water); 222 % of control and 298 % of control (dose: 10.0 mg/kg/injection, schedule: Q01DX009 (ip), vehicle: saline); 182 % of control (dose: 11.4 mg/kg/injection, schedule: Q04DX003 (ip), vehicle: saline). Further, the T/C runs as follows: (dose: 11.7 mg/kg/injection, schedule: Q01DX009 (ip), vehicle: saline) 267 % of control; (dose: 12.0 mg/kg/injection, schedule: Q01DX004 (ip), vehicle: other) 159 % of control; (dose: 15.0 mg/kg/injection, schedule: Q01DX001 (ip), vehicle: water) 108 % of control; (dose: 18.0 mg/kg/injection, schedule: Q01DX001 (ip), vehicle: water) 203 % of control and 250 % of control and 273 % of control; (dose: 18.75 mg/kg/injection, schedule: Q01DX001 (ip), vehicle: water) 235 % of control; (dose: 18.8 mg/kg/injection, schedule: Q01DX001 (ip), vehicle: water) 200 % of control. Besides, the T/C runs as follows: (dose: 19.2 mg/kg/injection, schedule: Q01DX001 (ip), vehicle: water) 209 % of control; (dose: 20.0 mg/kg/injection, schedule: Q01DX009 (ip), vehicle: saline) 289 % of control and 314 % of control; (dose: 22.8 mg/kg/injection, schedule: Q04DX003 (ip), vehicle: saline) 236 % of control; (dose: 23.4 mg/kg/injection, schedule: Q01DX009 (ip), vehicle: saline) 165 % of control and 200 % of control; (dose: 30.0 mg/kg/injection, schedule: Q01DX001 (ip), vehicle: water) 116 % of control; (dose: 32.0 mg/kg/injection, schedule: Q01DX001 (ip), vehicle: other) 164 % of control. The T/C by setting is: (dose: 36.0 mg/kg/injection, schedule: Q01DX001 (ip), vehicle: water) 203 % of control; (dose: 37.5 mg/kg/injection, schedule: Q01DX001 (ip), vehicle: water) 226 % of control and 280 % of control; (dose: 40.0 mg/kg/injection, schedule: Q01DX009 (ip), vehicle: saline) 287 % of control; (dose: 45.6 mg/kg/injection, schedule: Q04DX003 (ip), vehicle: saline) 150 % of control and 276 % of control; (dose: 46.8 mg/kg/injection, schedule: Q01DX009 (ip), vehicle: saline) 172 % of control; (dose: 60.0 mg/kg/injection, schedule: Q01DX001 (ip), vehicle: water) 114 % of control. Further, the T/C (dose: 72.0 mg/kg/injection, schedule: Q01DX001 (ip), vehicle: water) was 277 % of control; the T/C (dose: 75.0 mg/kg/injection, schedule: Q01DX001 (ip), vehicle: water) is 314 % of control and 334 % of control; the T/C (dose: 91.2 mg/kg/injection, schedule: Q04DX003 (ip), vehicle: saline) is 157 % of control and 276 % of control; the T/C (dose: 150.0 mg/kg/injection, schedule: Q01DX001 (ip), vehicle: water) was 185 % of control and 315 % of control.
Regarding `Cc1ccc(NC(=O)COc2ccc(Cl)cc2)cc1Cl`, the T/C is 101 % of control under setting [1]; 106 % of control under setting [2]; 93 % of control and 101 % of control under setting [3]; 87 % of control under setting [4]; 96 % of control under setting [5].
Regarding `CCN(C=O)CC`, the T/C runs as follows: under setting [6], 117 % of control; (dose: 200.0 mg/kg/injection, schedule: Q01DX009 (ip), vehicle: saline) 115 % of control; (dose: 400.0 mg/kg/injection, schedule: Q01DX009 (ip), vehicle: saline) 107 % of control.
For the compound `Nc1ccccc1N`, the T/C by setting is: under setting [7], 96 % of control; under setting [8], 98 % of control; (dose: 25.0 mg/kg/injection, schedule: Q02DX009 (ip), vehicle: saline with Tween-80) 106 % of control; under setting [9], 98 % of control; under setting [10], 102 % of control; (dose: 100.0 mg/kg/injection, schedule: Q02DX009 (ip), vehicle: saline with Tween-80) 100 % of control. For the setting “dose: 200.0 mg/kg/injection, schedule: Q02DX009 (ip), vehicle: saline with Tween-80”, the T/C was 100 % of control.
In the case of `CC(=O)C(=O)NC1/C=C(C)\C=C/C(O)C/C=C(C)\C=C/C(O)CC2OC(=O)C1(C)C(=O)C2C` (configuration not stated), the T/C reads like this: under setting [8], 100 % of control; under setting [9], 118 % of control; under setting [10], 117 % of control; (dose: 200.0 mg/kg/injection, schedule: Q01DX009 (ip), vehicle: Klucel (hydroxypropylcellulose) (HPC)) 112 % of control.
Take `CC(c1ccccc1)N1C(=O)CSC1=S` (configuration not stated): the T/C runs as follows: under setting [4], 100 % of control; under setting [5], 94 % of control; (dose: 100.0 mg/kg/injection, schedule: Q01DX009 (ip), vehicle: saline with Tween-80) 103 % of control; (dose: 200.0 mg/kg/injection, schedule: Q01DX009 (ip), vehicle: saline with Tween-80) 101 % of control.
Take `C[n+]1c2ccccc2c(Nc2ccc(NS(=O)(=O)CCCCN=C(N)N)cc2)c2ccc(N)cc21`: the T/C reads like this: (dose: 0.75 mg/kg/injection, schedule: Q01DX009 (ip), vehicle: water) 114 % of control; (dose: 3.0 mg/kg/injection, schedule: Q01DX009 (ip), vehicle: Klucel (hydroxypropylcellulose) (HPC)) 170 % of control; (dose: 3.0 mg/kg/injection, schedule: Q01DX009 (ip), vehicle: water) 171 % of control; (dose: 6.0 mg/kg/injection, schedule: Q01DX009 (ip), vehicle: Klucel (hydroxypropylcellulose) (HPC)) 159 % of control; (dose: 6.0 mg/kg/injection, schedule: Q01DX009 (ip), vehicle: water) 168 % of control and 176 % of control; (dose: 12.0 mg/kg/injection, schedule: Q01DX009 (ip), vehicle: water) 184 % of control and 188 % of control. In addition, the T/C is, setting by setting: (dose: 12.5 mg/kg/injection, schedule: Q04DX003 (ip), vehicle: water) 151 % of control; (dose: 25.0 mg/kg/injection, schedule: Q04DX003 (ip), vehicle: water) 171 % of control.
With `Cc1cccc2nc(-c3ccccc3)ccc12`, the T/C is 107 % of control (dose: 12.5 mg/kg/injection, schedule: Q04DX003 (ip), vehicle: saline) and 105 % of control (dose: 25.0 mg/kg/injection, schedule: Q04DX003 (ip), vehicle: saline).
Regarding `O=C(O)C1(NO)CCCC1`, the T/C under setting [6] was 87 % of control.
Consider `Cc1cccc(C)c1NC(=S)N(C)C`, for which the T/C was 102 % of control (dose: 3.12 mg/kg/injection, schedule: Q01DX009 (ip), vehicle: Klucel (hydroxypropylcellulose) (HPC)); 110 % of control under setting [1]; 100 % of control (dose: 6.25 mg/kg/injection, schedule: Q01DX009 (ip), vehicle: Klucel (hydroxypropylcellulose) (HPC)); 115 % of control under setting [2]; 91 % of control and 100 % of control under setting [7]; 112 % of control under setting [3].
In the case of `O=C1Cc2cccc3c2C(C1)CN3C(=O)c1ccccc1` (configuration not stated), the T/C reads like this: (dose: 100.0 mg/kg/injection, schedule: Q04DX003 (ip), vehicle: Klucel (hydroxypropylcellulose) (HPC)) 101 % of control; (dose: 200.0 mg/kg/injection, schedule: Q04DX003 (ip), vehicle: Klucel (hydroxypropylcellulose) (HPC)) 106 % of control; (dose: 400.0 mg/kg/injection, schedule: Q04DX003 (ip), vehicle: Klucel (hydroxypropylcellulose) (HPC)) 110 % of control.

Values taken from PubChem BioAssay AID192 (DTP/NCI, 2004).
